In ChEMBL document CHEMBL1151900, “Steroidal bivalent ligands for the estrogen receptor: design, synthesis, characterization and binding affinities” (Bioorg Med Chem, 2009):

What was measured:
[1] = molecular target: T1, Estrogen receptor (Homo sapiens) (UniProt P03372); experiment: Displacement of [3H]estradiol from full-length human estrogen receptor alpha by radiometric assay relative to estradiol
T1 sequence (whole entry): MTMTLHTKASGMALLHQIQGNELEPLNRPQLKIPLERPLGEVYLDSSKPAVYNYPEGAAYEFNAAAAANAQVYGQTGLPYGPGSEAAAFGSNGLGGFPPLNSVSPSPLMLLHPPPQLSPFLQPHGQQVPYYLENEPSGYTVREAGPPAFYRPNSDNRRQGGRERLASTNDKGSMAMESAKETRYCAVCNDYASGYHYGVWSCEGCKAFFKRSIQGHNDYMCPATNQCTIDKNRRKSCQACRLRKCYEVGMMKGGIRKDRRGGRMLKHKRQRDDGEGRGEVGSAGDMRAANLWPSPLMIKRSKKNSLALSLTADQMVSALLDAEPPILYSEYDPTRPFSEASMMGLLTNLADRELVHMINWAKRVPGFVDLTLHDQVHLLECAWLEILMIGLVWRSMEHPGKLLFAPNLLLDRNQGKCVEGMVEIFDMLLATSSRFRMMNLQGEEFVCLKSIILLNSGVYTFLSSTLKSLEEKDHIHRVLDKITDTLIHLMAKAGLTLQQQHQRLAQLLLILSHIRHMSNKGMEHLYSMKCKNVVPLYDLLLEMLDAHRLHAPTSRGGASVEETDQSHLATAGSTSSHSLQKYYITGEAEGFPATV

[2] = molecular target: Estrogen receptor beta (Homo sapiens) (UniProt Q92731); experiment: Displacement of [3H]estradiol from full-length human estrogen receptor beta by radiometric assay relative to estradiol
Estrogen receptor beta (Homo sapiens), sequence (Q92731 whole entry): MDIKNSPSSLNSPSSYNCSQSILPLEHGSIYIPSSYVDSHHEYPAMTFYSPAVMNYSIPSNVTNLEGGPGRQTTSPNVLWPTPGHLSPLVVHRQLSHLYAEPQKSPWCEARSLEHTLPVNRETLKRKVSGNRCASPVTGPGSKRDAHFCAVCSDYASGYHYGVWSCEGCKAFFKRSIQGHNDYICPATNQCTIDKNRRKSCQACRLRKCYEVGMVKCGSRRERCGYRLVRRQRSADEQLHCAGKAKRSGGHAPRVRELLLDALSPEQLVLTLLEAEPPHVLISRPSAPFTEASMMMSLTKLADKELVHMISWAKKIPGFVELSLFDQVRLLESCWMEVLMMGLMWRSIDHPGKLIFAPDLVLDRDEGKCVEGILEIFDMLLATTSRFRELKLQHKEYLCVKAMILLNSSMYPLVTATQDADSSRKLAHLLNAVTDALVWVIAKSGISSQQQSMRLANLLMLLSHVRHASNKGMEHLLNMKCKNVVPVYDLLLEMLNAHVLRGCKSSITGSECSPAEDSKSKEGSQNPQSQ

Structure (SMILES) | RBA [1] | RBA [2]
C[C@]12CC[C@@H]3c4ccc(O)cc4CC[C@H]3[C@@H]1CC[C@@]2(O)C#Cc1ccc(OCCOCCOCCOCCOCCOCCOc2ccc(C#C[C@]3(O)CC[C@H]4[C@@H]5CCc6cc(O)ccc6[C@H]5CC[C@@]43C)cc2)cc1 | 1.2% | 0.68%
C[C@]12CC[C@@H]3c4ccc(O)cc4CC[C@H]3[C@@H]1CC[C@@]2(O)C#Cc1ccc(CNCCOCCOCCOCCOCCOCCNCc2ccc(C#C[C@]3(O)CC[C@H]4[C@@H]5CCc6cc(O)ccc6[C@H]5CC[C@@]43C)cc2)cc1 | 6.8% | 3.6%
C[C@]12CC[C@@H]3c4ccc(O)cc4CC[C@H]3[C@@H]1CC[C@@]2(O)C#Cc1ccc(OCCCOCCCOc2ccc(C#C[C@]3(O)CC[C@H]4[C@@H]5CCc6cc(O)ccc6[C@H]5CC[C@@]43C)cc2)cc1 | 0.9% | 0.38%
C[C@]12CC[C@@H]3c4ccc(O)cc4CC[C@H]3[C@@H]1CC[C@@]2(O)C#Cc1ccc(OCCCCOCCCCOCCCCOCCCCOCCCOc2ccc(C#C[C@]3(O)CC[C@H]4[C@@H]5CCc6cc(O)ccc6[C@H]5CC[C@@]43C)cc2)cc1 | 1.6% | 0.22%
C[C@]12CC[C@@H]3c4ccc(O)cc4CC[C@H]3[C@@H]1CC[C@@]2(O)C#Cc1ccc(OCCCOCCCOCCCOCCCOCCCOc2ccc(C#C[C@]3(O)CC[C@H]4[C@@H]5CCc6cc(O)ccc6[C@H]5CC[C@@]43C)cc2)cc1 | 2.3% | 0.69%
C[C@]12CC[C@@H]3c4ccc(O)cc4CC[C@H]3[C@@H]1CC[C@@]2(O)C#Cc1ccc(OCCCCOCCCCOCCCCOCCCCOc2ccc(C#C[C@]3(O)CC[C@H]4[C@@H]5CCc6cc(O)ccc6[C@H]5CC[C@@]43C)cc2)cc1 | 2.6% | 0.76%
C[C@]12CC[C@@H]3c4ccc(O)cc4CC[C@H]3[C@@H]1CC[C@@]2(O)C#Cc1ccc(OCCCOCCCOCCCOCCCOCCCOCCCOc2ccc(C#C[C@]3(O)CC[C@H]4[C@@H]5CCc6cc(O)ccc6[C@H]5CC[C@@]43C)cc2)cc1 | 1.5% | 0.38%
C[C@]12CC[C@@H]3c4ccc(O)cc4CC[C@H]3[C@@H]1CC[C@@]2(O)C#Cc1ccc(OCCCOCCCOCCCOc2ccc(C#C[C@]3(O)CC[C@H]4[C@@H]5CCc6cc(O)ccc6[C@H]5CC[C@@]43C)cc2)cc1 | 2.1% | 0.53%
C[C@]12CC[C@@H]3c4ccc(O)cc4CC[C@H]3[C@@H]1CC[C@@]2(O)C#Cc1ccc(OCCCCOCCCCOCCCCOc2ccc(C#C[C@]3(O)CC[C@H]4[C@@H]5CCc6cc(O)ccc6[C@H]5CC[C@@]43C)cc2)cc1 | 4.5% | 1.5%
C[C@]12CC[C@@H]3c4ccc(O)cc4CC[C@H]3[C@@H]1CC[C@@]2(O)C#Cc1ccc(OCCCCOCCCCOc2ccc(C#C[C@]3(O)CC[C@H]4[C@@H]5CCc6cc(O)ccc6[C@H]5CC[C@@]43C)cc2)cc1 | 1.8% | 0.82%
C[C@]12CC[C@@H]3c4ccc(O)cc4CC[C@H]3[C@@H]1CC[C@@]2(O)C#Cc1ccc(OCCCOCCCOCCCOCCCOc2ccc(C#C[C@]3(O)CC[C@H]4[C@@H]5CCc6cc(O)ccc6[C@H]5CC[C@@]43C)cc2)cc1 | 6.9% | 0.003%
